Experimental findings from patent US20220062431A1, “COMPOUNDS COMPRISING STAPLED OR STITCHED PEPTIDES FOR IMPROVED DRUG DELIVERY” (Sutura Therapeutics Ltd, priority 2017, published 2022) are described below.

“Also recorded” adds a separate entry of the source. Positions of bridges follow the written chain, without caps; N, C: chain ends. Non-standard residues stand in square brackets, D forms with d. Residues, ends and D or L forms follow the SMILES beside them. *: point of attachment. FITC = O=C1OC2(c3ccc(O)cc3Oc3cc(O)ccc32)c2ccc(NC(=S)*)cc21; PEG6 = NCCOCCOCCOCCOCCOCCOCCC(=O)O; S5 = C=CCCC[C@](C)(N)C(=O)O

For series [1], the system named is HeLa pLuc 705 cells. Kind of series: % viable cells judged by gated cells compared to negative controls (flow cytometry). It is filed as cell-based. The protocol: (§1) HeLa pLuc705 cells were cultured in high glucose DMEM supplemented with 10% foetal calf serum (Sigma, UK) at 37° C. under an 8% CO2/92% air atmosphere.
(§2) HeLa pLuc705 cells were setup in 96 well plates with the appropriate dilutions of test compounds either FITC labeled peptides or FITC labeled PMO conjugates diluted into complete culture media (up to 100 µM). Cells were then then trypsinised, diluted to 4×10^5 cells per mL and 100 μL added to each well giving a final volume of 200 μL in each well. Cells were then incubated for either 4 or 24 hours at either 4 or 37° c.
(§3) Uptake of fluorescently-labelled PMO and peptides was determined by flow cytometry using an Accuri C6 flow cytometer. Cells were washed with PBS and glycine buffer then released with trypsin, and kept on ice before analysis in PBS containing 2.5% FBS. Cell fluorescence in single live cells was determined using FlowJo software after appropriate gating. Untreated cells were used to establish gating settings for the determination of the % fluorescein-positive cells, mean fluorescent intensity (MFI) was also calculated. Uptake was determined by gating cells that were able exclude cell-impermanent die (To-pro-3) indicating the ability of cells to retain membrane integrity.

For series [2], the system named is HeLa pLuc 705 cells. Put plainly: Flow cytometry uptake of FITC labeled CPAs (FL1+ cells, MFI). It is filed as cell-based. Particulars: 4 hours; for number of FL1 positive cells, cyclized vs non-cyclised (NC) peptide: cyclised peptide compared to its non-cyclised control. The protocol:
as §1, §2, §3
In general terms: A flow cytometer gives signals particle by particle.

For the compound `CC[C@H](C)[C@H](NC(=O)CCOCCOCCOCCOCCOCCOCCNC(=S)Nc1ccc2c(c1)C(=O)OC21c2ccc(O)cc2Oc2cc(O)ccc21)C(=O)N[C@H](C(=O)N[C@@H](Cc1ccccc1)C(=O)N[C@@]1(C)CCCC=CCCC[C@@](C)(C(N)=O)NC(=O)[C@H](Cc2ccccc2)NC(=O)[C@H](CC(C)C)NC(=O)[C@H]([C@@H](C)CC)NC1=O)[C@@H](C)CC` [RCM1,5-P8M-FITC-0+] ({FITC-PEG6}-IIF[S5]ILF[S5]-NH2; staple 4-8), in the series with HeLa pLuc 705 cells [1] (0.05 μM, 4 hours), the “viable cells over RCM1,5-CP8M-FITC-3+ and RCM1,5-CP8M-FITC-2+” value was “increase”. The “MFI compared between RCM1,5 charge variants” value in the series with HeLa pLuc 705 cells [2] (at a given concentration, increase for 3+ at higher concentrations >1 μM) is given as “no significant difference”. For the same compound, the “FL1+ cells compared to other RCM1,5 charge variants” value in the series with HeLa pLuc 705 cells [2] (over a range of concentrations) is on record as “increase”.

Turning to `CC(C)C[C@@H]1NC(=O)[C@H](CCCNC(=N)N)NC(=O)[C@@H](NC(=O)[C@H](Cc2ccccc2)NC(=O)[C@H](CCCCN)NC(=O)[C@H](CCCNC(=N)N)NC(=O)CCOCCOCCOCCOCCOCCOCCNC(=S)Nc2ccc3c(c2)C(=O)OC32c3ccc(O)cc3Oc3cc(O)ccc32)CCC(=O)NCCCC[C@@H](C(N)=O)NC(=O)[C@H](Cc2ccccc2)NC1=O` [K1E5-P8M-FITC] ({FITC-PEG6}-RKFERLFK-NH2; lactam 4-8; N-terminus assumed), the “% cell viability compared to RCM1,5-P8M-FITC-3+” value with HeLa pLuc 705 cells [1] (4 hours, all concentrations) was “increase”. In the series on HeLa pLuc 705 cells [1] (4 hours, cyclised versus non-cyclised peptide), the “% of cells recovered when normalized to untreated controls (% viable cells)” value was “no significant difference”. In addition, the “cellular toxicity / impact on cell viability” value in the series with HeLa pLuc 705 cells [1] (all concentrations 0.05 to 100 μM, listed as K1E5-CP8M-FITC) was “no adverse cellular toxicity; also recorded: do not have any negative impact”. In the series with HeLa pLuc 705 cells [1] (over the range of concentrations (0.05 to 100 μM)), the “increase in viability comparing RCM1,5-P8M-FITC to K1E5-P8M-FITC” value was 70-99%. The “MFI, cyclised vs non-cyclised (NC) peptide” value with HeLa pLuc 705 cells [2] (2 way ANOVA) is listed as “no interaction affect”. The “number of FL1 positive cells, cyclized vs non-cyclised (NC) peptide” value in the series with HeLa pLuc 705 cells [2] (2 way ANOVA) was “no significant difference”; in the series on HeLa pLuc 705 cells [2] (2 way ANOVA, listed as K1E5-CP8M-FITC), “no difference”.
